The test system of the assay is OKP-GS cells. As to the kind of experiment: Annexin-V/propidium iodide apoptosis assay by flow cytometry. The settings on record: for Living cells: Figure 3; for Level of apoptosis compared with sorafnib / Number of necrotic cells: 72 h; for Number of necrotic cells: 5, 10 and 20 μM. Format: cell-based, human. As to the method:
Apoptosis is a versatile and extremely effective pathway for cell death. This phenomenon can be caused by internal signals, such as genotoxic stress, or external signals, such as the binding of ligands to death receptors on the cell surface. The induction of apoptosis was studied by measuring the translocation of phosphatidylserine from the cytoplasmic to the extracellular side of the plasma membrane. OKP-GS cells were treated with compound 7 or 10 at 5, 10 and 20 μM for 72 h, after which annexin-V/propidium iodide (PI) binding was measured by flow cytometry (Figure 2).
Tumor cells were plated on a 6-well plate at a density of 100.000 per well for OKP-GS. Test compounds 7 and 10 were added at concentrations of 5, 10, and 20 μM for 72 h. Then, the cells were washed from the culture medium by centrifugation at 1000 rpm for 5 min, washed again with phosphate buffer, then the Annexin V-FITC and PI dyes from the Annexin 5A-FITC Kit (Beckman Coulter, Brea, CA, USA) were added, according to the manufacturer’s instructions. Colored suspensions were incubated for 15 min in the dark on ice and measured on a Cytomics FC500 Beckman Coulter flow cytometer (channels FL1 for Annexin V-FITC and FL4 for PI). Data were analyzed with Kaluza 2.0 Software (Beckman Coulter, Brea, CA, USA).
A general note: In flow cytometry, cells or beads pass a laser one at a time.

In the case of `O=C(Nc1cccc(C(F)(F)F)c1)c1ccc(Cn2cnc3c(Cl)nc(Cl)nc32)cc1` [Compound 7, 4-((2,6-Dichloro-9H-purin-9-yl)methyl)-N-(3-(trifluoromethyl)phenyl)benzamide], the “Number of necrotic cells” value was at most 7.3%. Besides, the Living cells (5 μM) is 83,07. The Living cells (10 μM) was 56,68. Besides, for the setting “20 μM”, the “Level of apoptosis compared with sorafnib” value is recorded as “more than two-fold higher level of apoptosis” and the Living cells is recorded as 23,92.
With `Cc1cn(-c2cc(NC(=O)c3ccc(Cn4cnc5c(Cl)nc(Cl)nc54)cc3)cc(C(F)(F)F)c2)cn1` [Compound 10, 4-((2,6-Dichloro-9H-purin-9-yl)methyl)-N-(3-(4-methyl-1H-imidazol-1-yl)-5-(trifluoromethyl)-phenyl)benzamide], the “Number of necrotic cells” value was at most 7.3%. For the same compound, the Living cells (5 μM) is 70,22. Besides, the Living cells (10 μM) is 44,89. In addition, for the setting “20 μM”, the “Level of apoptosis compared with sorafnib” value is recorded as “more than two-fold higher level of apoptosis” and the Living cells is 21,99.

The values are drawn from paper PMC8657793, “Synthesis, In Vitro and In Silico Anticancer Activity of New 4-Methylbenzamide Derivatives Containing 2,6-Substituted Purines as Potential Protein Kinases Inhibitors” (International Journal of Molecular Sciences, 2021).
